# In PMC8952231 (Pharmaceutics, 2022):
# Experiments:
# [1] = Randomized, open-label, single-dose crossover pharmacokinetic study; plasma concentrations by LC-MS/MS, non-compartmental analysis; assay type: in vivo, human; conditions: for Intra-Participant CV% of AUCinf / Intra-Participant CV% of AUClast / Intra-Participant CV% of Cmax: IC vs. FCDP crossover; for AUC(0-inf) / AUC(0-t) / Cmax / Tmax / half-life: male, human, plasma
# Excerpt: Sixty-three healthy male volunteers (age, 19–45 years; body weight > 50 kg) agreed to participate in the study and signed a written informed consent form. Only male participants were recruited to avoid the potential risk of pregnancy. The participants were considered healthy after a detailed physical examination by physicians involving 12-lead electrocardiographs (ECG), vital sign assessments, and laboratory evaluations, including blood chemistry, hematology, and urinalysis. […] The study protocol was approved (IRB No.2019AN0538, clinicaltrial.gov; NCT05066516) by the Institutional Review Board of Anam Hospital, Korea University Medical Center (Seoul, Korea), and all procedures were conducted following the principles described in the Declaration of Helsinki and Good Clinical Practice guidelines.
# This study was conducted as a randomized, open-label, single-dose crossover study. All participants were randomly allocated to group A (period 1: individual components (ICs), period 2: FCDP) or group B (period 1: FCDP, period 2: ICs). […] All medications were biopharmaceutical classification system (BCS) III drugs with high solubility and low permeability. […] For FCDP, microcrystalline cellulose and copovidone were used as major excipients.
# On day 1 (the day of each drug administration), serial blood samples were drawn immediately before (0 h) and 0.25, 0.5, 0.75, 1, 1.5, 2, 2.5, 3, 4, 6, 8, 12, 24, 48, and 72 h after each dosing to assess the pharmacokinetics of each drug. The collected samples were centrifuged (at 1977× g, 4 °C) for 15 min, and the extracted plasma samples were stored frozen at −60 °C until they were analyzed.
# For dapagliflozin analysis, 100 µL plasma was added to a glass tube containing an internal standard (10 µL of 1 mg/mL dapagliflozin-d5) and 1 mL methanol. The samples were vigorously vortexed and centrifuged at 10,770× g for 3 min. Next, 100 µL of the upper layer was transferred to a polypropylene tube with 10 µL of internal standard (dapagliflozin-d5, Toronto Research, Toronto, ON, Canada) and 300 µL of acetonitrile. After vigorous vortexing and centrifugation at 2191× g for 1 min, 200 µL of the upper layer was transferred to another polypropylene tube with 200 µL of ammonium acetate (0.1%, w/v). A 20 µL aliquot of the solution was finally injected into the LC–MS/MS system; 0.1% ammonium acetate and methanol were used for the mobile phase. The gradient elution mode was applied (methanol proportion ranging between 57.5% and 90% in 5 min) with a constant flow rate of 0.4 mL/min. Dapagliflozin was quantified using the multiple reaction monitoring (MRM) mode. The produced transitions were m/z 426.47 → 166.84 for dapagliflozin and m/z 431.50 → 166.85 for dapagliflozin-d5. The linear function of dapagliflozin concentration ranged from 1 to 400 ng/mL with regression correlation coefficients of the calibration curves (R) greater than 0.999. The intra-day and inter-day CV values were below 15%. The lower limit of quantification (LLOQ) using this method was 1 ng/mL.
# Linagliptin-^13C-d3 (TLC Pharmaceutical Standards Ltd., Newmarket, ON, Canada) was used as the internal standard, and 100 µL of plasma was added to a glass tube containing the internal standard (10 µL of 1 mg/mL linagliptin-^13C-d3) and 1 mL methanol. The samples were vigorously vortexed and centrifuged at 10,770× g for 3 min. Next, 100 µL of the upper layer was transferred to a polypropylene tube with 10 µL of the internal standard and 400 µL of methanol. After vigorous vortexing and centrifugation at 2191× g for 1 min, 100 µL of the upper layer was transferred to another polypropylene tube containing 300 µL of formic acid in distilled water (0.1%, w/v). A 20 µL aliquot of the solution was finally injected into the LC–MS/MS system; 0.1% ammonium formate in distilled water and acetonitrile was used as the mobile phase. […] Linagliptin was quantified using MRM mode. […] The intra-day and inter-day CV values were <15%. The LLOQ with this method was 0.04 ng/mL. […]
# [2] = system: P-gp; conditions: cited from earlier work
# [3] = cited from earlier work; for food effect: previous studies
# [4] = system: uridine diphosphate glucuronosyltransferase 1A9; conditions: cited from earlier work
# [5] = system: SGLT2:SGLT1 receptor; conditions: compared with empagliflozin; cited from earlier work
# [6] = system: cytochrome P450 3A4 enzyme; conditions: in humans; cited from earlier work
# [7] = IC: co-administered single oral doses of Forxiga 10 mg and Trajenta 5 mg, fasted healthy males, mean ± SD
# [8] = IC: co-administered single oral doses of Forxiga 10 mg and Trajenta 5 mg, fasted healthy males, 0 to 72 h, mean ± SD
# [9] = IC: co-administered single oral doses of Forxiga 10 mg and Trajenta 5 mg, fasted healthy males, median (range)
Intra-Participant CV% of AUCinf [1] [%],Intra-Participant CV% of AUClast [1] [%],Intra-Participant CV% of Cmax [1] [%],"AUC(0-inf) ([1]; po, 5 mg) [ng·h/mL]","AUC(0-t) ([1]; po, 5 mg) [ng·h/mL]","Cmax ([1]; po, 5 mg) [ng/mL]","Tmax ([1]; po, 5 mg) [h]","half-life ([1]; po, 5 mg) [h]","AUC(0-t) [1, 8] [ng·h/mL]","AUC(0-inf) [1, 7] [ng·h/mL]","Cmax [1, 7] [ng/mL]","half-life [1, 7] [h]","Tmax [1, 9] [h]",Structure (SMILES),food effect [3],other results
7.35,7.91,20.49,516 ± 98.3,466 ± 99.3,168 ± 42.1,0.75,12.8 ± 3.84,456 ± 92.8,500 ± 93.9,161 ± 42,11.3 ± 3.39,0.75,CCOc1ccc(Cc2cc([C@@H]3O[C@H](CO)[C@@H](O)[C@H](O)[C@H]3O)ccc2Cl)cc1 [dapagliflozin],no possible food effect,"CL/F ([1]; FCDP: single oral dose IN-C009 (dapagliflozin 10 mg/linagliptin 5 mg), fasted healthy males, mean ± SD): 20.01 ± 3.6 L/h; CL/F [1, 7]: 20.67 ± 3.89 L/h; P-gp inhibitor status ([2]; in vitro studies): not an inhibitor; P-gp substrate status ([2]; in vitro studies): weak substrate; half-life (t1/2) [3]: 8.1 to 12.2 h; fraction metabolized by uridine diphosphate glucuronosyltransferase 1A9 [4]: approximately 65%; SGLT2:SGLT1 receptor selectivity [5]: lower SGLT2:SGLT1 receptor selectivity"
12.67,7.96,27.58,268 ± 88,157 ± 35.9,4.2 ± 2.01,1.5,54.3 ± 12.3,155 ± 30.4,266 ± 78.7,3.95 ± 1.42,54.9 ± 13.6,2.5,CC#CCn1c(N2CCC[C@@H](N)C2)nc2c1c(=O)n(Cc1nc(C)c3ccccc3n1)c(=O)n2C [linagliptin],no possible food effect,"P-gp inhibition ([2]; at the therapeutic levels): does not inhibit P-gp; Km of P-gp associated transport [2]: 187 µM; substrate for P-glycoprotein (P-gp) ([2]; in humans): known substrate; substrate for cytochrome P450 3A4 enzyme [6]: known substrate; oral bioavailability [3]: approximately 30%; kidney excretion ([3]; human, in vivo): 5%; time to reach steady-state level ([3]; therapeutic dose (5 mg)): ≤ 4 days"
,,,,,,,,,,,,,N#C[C@@H]1C[C@@H]2C[C@@H]2N1C(=O)[C@@H](N)C12CC3CC(CC(O)(C3)C1)C2 [saxagliptin],,"half-life, metabolite ([3]; metabolite of saxagliptin): 3.1 h"
